These results are taken from US7304174B2, “CaSR antagonist” (Japan Tobacco Inc., priority 2003, dated 2007).

In one data set the target is T1, CYP2D6 (Homo sapiens, UniProt P10635).
T1 construct: purchased BD Bioscience
Description: Metabolic enzyme CYP2D6 inhibitory activity (inhibition measurement kit). The format is in vitro ADME. Particulars: enzyme activity free of test compound as 100%, >10 means over 10 μM. As for the experimental part: Using a metabolic enzyme CYP2D6 inhibition measurement kit (BD Bioscience) and following the manual of the kit, the inhibitory activity of the test compound was measured. With the enzyme activity free of the test compound as 100%, the concentration (IC50) showing 50% inhibition was determined. The results are shown in Table 63 and Table 64, wherein “>10” means over 10 μM.

The target in the next data set is T2, human calcium receptor (Homo sapiens, UniProt P41180).
T2 construct: expressed in transfected cells; host or cells: cell strain derived from rat adrenal, co-transformed with luciferase cDNA
T2 sequence (P41180 20-1078): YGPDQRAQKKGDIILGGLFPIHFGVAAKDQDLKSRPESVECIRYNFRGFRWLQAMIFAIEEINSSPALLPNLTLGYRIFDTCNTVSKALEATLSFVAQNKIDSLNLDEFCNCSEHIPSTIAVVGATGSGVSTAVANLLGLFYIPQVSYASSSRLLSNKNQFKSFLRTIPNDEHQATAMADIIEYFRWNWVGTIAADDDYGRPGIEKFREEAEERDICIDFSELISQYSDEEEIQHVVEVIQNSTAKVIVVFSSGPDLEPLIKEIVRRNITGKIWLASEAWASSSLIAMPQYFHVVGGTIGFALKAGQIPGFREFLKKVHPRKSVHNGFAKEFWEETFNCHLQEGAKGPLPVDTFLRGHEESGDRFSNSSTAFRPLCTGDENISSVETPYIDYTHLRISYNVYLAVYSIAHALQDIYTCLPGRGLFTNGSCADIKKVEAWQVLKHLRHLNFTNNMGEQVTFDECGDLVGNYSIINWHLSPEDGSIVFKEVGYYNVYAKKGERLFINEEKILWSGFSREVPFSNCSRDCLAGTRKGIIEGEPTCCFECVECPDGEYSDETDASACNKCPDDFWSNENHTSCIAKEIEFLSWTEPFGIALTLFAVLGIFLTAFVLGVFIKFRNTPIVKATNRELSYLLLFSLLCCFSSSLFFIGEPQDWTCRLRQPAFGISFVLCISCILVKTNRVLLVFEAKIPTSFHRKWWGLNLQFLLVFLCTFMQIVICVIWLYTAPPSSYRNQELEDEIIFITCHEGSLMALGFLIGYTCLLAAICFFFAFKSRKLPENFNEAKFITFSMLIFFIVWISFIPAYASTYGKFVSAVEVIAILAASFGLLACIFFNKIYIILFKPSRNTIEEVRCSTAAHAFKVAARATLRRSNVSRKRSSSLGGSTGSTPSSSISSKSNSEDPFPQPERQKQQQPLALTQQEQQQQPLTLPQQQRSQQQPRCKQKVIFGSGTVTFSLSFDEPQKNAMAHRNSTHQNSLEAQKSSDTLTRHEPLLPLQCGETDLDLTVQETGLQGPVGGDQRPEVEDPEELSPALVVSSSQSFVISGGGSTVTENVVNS
Description: Evaluation of antagonistic action on calcium receptor using reporter gene (luciferase). The format is cell-based. The conditions noted are these: transformed rat adrenal derived cells, 5 mM calcium chloride, culture 4 hrs, luciferase activity; read-out: Reporter gene assay (IC50, concentration showing 50% inhibitory rate). An outline of the steps:
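Rat adrenal-derived cells transfected with luciferase and human calcium receptor cDNA, in F12 with 0.5% dialyzed horse serum and 0.25% dialyzed fetal bovine serum. Luciferase luminescence gave % inhibition vs control and blank; IC50 at 50% inhibition.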
(In general: Reporter assays use an easily measured gene product as a stand-in for the process of interest.)

The test system of the next data set is PTH secretion. The data set is described as follows: PTH secretion action, Experimental Example 2 (serum PTH after oral administration). Format: in vivo, male SD rats. The conditions noted are these: test compound administration group, 1 mg/5 ml/kg oral, rats fasted 20 hr. How it is done: The test compound was orally administered to 5 to 9-week-old male SD rats (Charles River Japan, Inc.) fasted for 20 hr, using a solvent (0.5% methyl cellulose solution) at a dose of 1 mg/5 ml/kg. A solvent alone was orally administered to the control group at a dose of 5 ml/kg. The blood was drawn from the tail vein immediately before and, 15 min, 30 min, 60 min and 120 min after the administration of the test compound, and serum was obtained. The serum PTH concentration was measured using rat PTH ELISA kit (Amersham Biosciences).

The subject of another data set is PTH release. The conditions noted are these: OVX rat, cited from earlier work.

T1 sequence (P10635 whole entry): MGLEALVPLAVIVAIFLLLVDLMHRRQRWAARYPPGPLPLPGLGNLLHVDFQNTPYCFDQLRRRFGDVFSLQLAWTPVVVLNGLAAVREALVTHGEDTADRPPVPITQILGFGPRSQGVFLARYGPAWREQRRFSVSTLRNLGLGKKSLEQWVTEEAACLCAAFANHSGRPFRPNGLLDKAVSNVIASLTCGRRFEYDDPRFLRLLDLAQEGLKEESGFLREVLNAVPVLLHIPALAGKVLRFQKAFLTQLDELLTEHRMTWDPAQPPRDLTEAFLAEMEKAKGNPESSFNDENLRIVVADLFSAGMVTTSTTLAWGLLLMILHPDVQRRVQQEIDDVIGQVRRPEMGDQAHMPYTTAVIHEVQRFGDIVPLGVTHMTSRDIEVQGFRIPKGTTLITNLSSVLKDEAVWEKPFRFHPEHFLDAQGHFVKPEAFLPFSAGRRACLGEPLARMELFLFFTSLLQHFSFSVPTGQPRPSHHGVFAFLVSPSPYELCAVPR

As to `Cc1cc(C(=O)O)ccc1-c1ccccc1[C@@H](C)OC[C@H](O)CNC(C)(C)Cc1ccc(Cl)c(Cl)c1` [Example 1-57, 2′-[1-[(2R)-3-[[1-(3,4-dichlorophenyl)-2-methylpropan-2-yl]amino]-2-hydroxypropoxy]ethyl]-2-methylbiphenyl-4-carboxylic acid], the IC50 at CYP2D6 was > 10000 nM; on human calcium receptor it was 27 nM.

For `Cc1ccc(CC(C)(C)NC[C@@H](O)CO[C@H](C)c2ccccc2-c2ccc(C(=O)O)c(Cl)n2)cc1F` [Example 1-39, 2-chloro-6-[2-[1-[(2R)-3-[[1-(3-fluoro-4-methylphenyl)-2-methylpropan-2-yl]amino]-2-hydroxypropoxy]ethyl]phenyl]pyridine-3-carboxylic acid], the IC50 is > 10000 nM against CYP2D6 and 12 nM at human calcium receptor.

In the case of `C[C@@H](OC[C@H](O)CNC(C)(C)Cc1ccc2ccccc2c1)c1ccccc1-c1ccc(C(=O)O)c(Cl)n1` [Example 1-35, 2-chloro-6-[2-[1-[(2R)-3-[[1-(naphthalen-2-yl)-2-methylpropan-2-yl]amino]-2-hydroxypropoxy]ethyl]phenyl]pyridine-3-carboxylic acid], the IC50 against CYP2D6 is > 10000 nM; at human calcium receptor, 10 nM.

As for `CC(C)=Cc1cc(-c2ccccc2[C@@H](C)OC[C@H](O)CNC(C)(C)Cc2ccc(C)c(F)c2)ccc1C(=O)O` [Example 1-48, 2′-[1-[(2R)-3-[[1-(3-fluoro-4-methylphenyl)-2-methylpropan-2-yl]amino]-2-hydroxypropoxy]ethyl]-3-(2-methyl-1-propenyl)biphenyl-4-carboxylic acid], the IC50 at CYP2D6 was > 10000 nM; on human calcium receptor, 2 nM.

In the case of `COc1cc(-c2ccccc2[C@@H](C)OC[C@H](O)CNC(C)(C)Cc2ccc(C)c(F)c2)ccc1C(=O)O` [Example 1-80, 2′-[1-[(2R)-3-[[1-(3-fluoro-4-methylphenyl)-2-methylpropan-2-yl]amino]-2-hydroxypropoxy]ethyl]-3-methoxybiphenyl-4-carboxylic acid], the IC50 is > 10000 nM against CYP2D6 and 27 nM on human calcium receptor.

As to `CC(OC[C@H](O)CNC(C)(C)Cc1cnc2ccccc2c1)c1ccccc1Oc1ccc(C(=O)O)cc1` (stereo partly drawn) [Example 2-5, 4-[2-[1-[(2R)-3-[[1-(quinolin-3-yl)-2-methylpropan-2-yl]amino]-2-hydroxypropoxy]ethyl]phenoxy]benzoic acid], the IC50 at CYP2D6 is > 10000 nM; on human calcium receptor it was 57 nM.

For `COc1cc(CC(C)(C)NC[C@@H](O)CO[C@H](C)c2ccccc2-c2ccc(C(=O)O)c(C)c2)ccc1C` [Example 1-73, 2′-[1-[(2R)-3-[[1-(3-methoxy-4-methylphenyl)-2-methylpropan-2-yl]amino]-2-hydroxypropoxy]ethyl]-3-methylbiphenyl-4-carboxylic acid], the values for the IC50 on CYP2D6 and at human calcium receptor were > 10000 nM and 7 nM, respectively.

`Cc1ccc(CC(C)(C)NC[C@@H](O)CO[C@H](C)c2ccccc2-c2ccc(C(=O)O)c(C(C)C)c2)cc1F` [Example 1-34, 2′-[1-[(2R)-3-[[1-(3-fluoro-4-methylphenyl)-2-methylpropan-2-yl]amino]-2-hydroxypropoxy]ethyl]-3-isopropylbiphenyl-4-carboxylic acid]: the results for the IC50 against CYP2D6 and on human calcium receptor were > 10000 nM and 5 nM, respectively.

Consider `COc1cc(-c2ccccc2[C@@H](C)OC[C@H](O)CNC(C)(C)Cc2ccc3ccccc3c2)ccc1C(=O)O` [Example 1-26, 2′-[1-[(2R)-3-[[1-(naphthalen-2-yl)-2-methylpropan-2-yl]amino]-2-hydroxypropoxy]ethyl]-3-methoxybiphenyl-4-carboxylic acid], for which the IC50 against CYP2D6 was > 10000 nM; at human calcium receptor, 14 nM.

As for `CCc1cc(-c2ccccc2[C@@H](C)OC[C@H](O)CNC(C)(C)Cc2ccc(C)c(F)c2)ccc1C(=O)O` [Example 1-33, 3-ethyl-2′-[1-[(2R)-3-[[1-(3-fluoro-4-methylphenyl)-2-methylpropan-2-yl]amino]-2-hydroxypropoxy]ethyl]biphenyl-4-carboxylic acid], the IC50 is > 10000 nM at CYP2D6 and 5 nM on human calcium receptor.

Consider `Cc1cc(-c2ccccc2[C@@H](C)OC[C@H](O)CNC(C)(C)Cc2ccc(Cl)cc2F)ccc1C(=O)O` [Example 1-6, 2′-[1-[(2R)-3-[[1-(4-chloro-2-fluorophenyl)-2-methylpropan-2-yl]amino]-2-hydroxypropoxy]ethyl]-3-methylbiphenyl-4-carboxylic acid], for which, in the data set with PTH secretion, the “Serum PTH concentration 15 min later” value worked out at 28.9 ± 6.9 pg/mL, the “Serum PTH concentration 30 min later” value came to 19.2 ± 3.1 pg/mL, the “Serum PTH concentration 60 min later” value was 10.0 ± 1.7 pg/mL and the “Serum PTH concentration 120 min later” value is 8.3 ± 0.6 pg/mL. Moreover, the IC50 at human calcium receptor was determined as 20 nM.

For `CC(C)c1cc(-c2ccccc2[C@@H](C)OC[C@H](O)CNC(C)(C)Cc2ccc3ccccc3c2)ccc1C(=O)O` [Example 1-32, 2′-[1-[(2R)-3-[[1-(naphthalen-2-yl)-2-methylpropan-2-yl]amino]-2-hydroxypropoxy]ethyl]-3-isopropylbiphenyl-4-carboxylic acid], the IC50 amounted to 10000 nM at CYP2D6 (human, CYP2D6 inhibition measurement kit (BD Bioscience)) and 2 nM at human calcium receptor.

Turning to `C[C@@H](OC[C@H](O)CNC(C)(C)Cc1ccc2ccccc2c1)c1ccccc1-c1ccc(C(=O)O)c(F)c1` [Example 1-59, 3-fluoro-2′-[1-[(2R)-3-[[1-(naphthalen-2-yl)-2-methylpropan-2-yl]amino]-2-hydroxypropoxy]ethyl]biphenyl-4-carboxylic acid], the values for the IC50 against CYP2D6 and at human calcium receptor were > 10000 nM and 16 nM, respectively.

Regarding `CCc1cc(-c2ccccc2[C@@H](C)OC[C@H](O)CNC(C)(C)Cc2ccc3ccccc3c2)ccc1C(=O)O` [Example 1-30, 3-ethyl-2′-[1-[(2R)-3-[[1-(naphthalen-2-yl)-2-methylpropan-2-yl]amino]-2-hydroxypropoxy]ethyl]biphenyl-4-carboxylic acid], in the data set on PTH secretion, the “Serum PTH concentration 15 min later” value was found to be 26.1 ± 2.3 pg/mL, the “Serum PTH concentration 30 min later” value amounted to 24.2 ± 3.3 pg/mL, the “Serum PTH concentration 60 min later” value amounted to 18.2 ± 1.3 pg/mL and the “Serum PTH concentration 120 min later” value is 13.8 ± 0.6 pg/mL. Besides, the IC50 at human calcium receptor was found to be 7 nM.

On to `CC(OC[C@H](O)CNC(C)(C)Cc1ccc2ccccc2c1)c1ccccc1OCc1ccccc1C(=O)O` (stereo partly shown) [2-20′], for which the figures for the IC50 against CYP2D6 and on human calcium receptor were > 10000 nM and 21 nM, respectively.

Turning to `COc1cc(C(=O)O)ccc1-c1ccccc1[C@@H](C)OC[C@H](O)CNC(C)(C)Cc1ccc2ccccc2c1` [Example 1-27, 2′-[1-[(2R)-3-[[1-(naphthalen-2-yl)-2-methylpropan-2-yl]amino]-2-hydroxypropoxy]ethyl]-2-methoxybiphenyl-4-carboxylic acid], the results for the IC50 against CYP2D6 and on human calcium receptor were > 10000 nM and 14 nM, respectively.

Consider “rat PTH (1-34): rat parathyroid hormone fragment (1-34) administered to OVX rat (AVSEIQLMHNLGKHLASVERMQWLRKKLQDVHNF; Parathyroid hormone; UniProt P04089 32-65, looked up, fragment)”, for which the “Time until blood PTH returned to the original level” value with PTH release (5 μg/kg) was 2 h. Also, the “Blood PTH concentration in 30 minutes” value in the data set with PTH release (rat PTH (1-34) 5 μg/kg, NPS-2143 100 μmol/kg) is listed as “about 175 pg/ml”.
